The source of these data is ChEMBL document CHEMBL4270607, “Identification of crizotinib derivatives as potent SHIP2 inhibitors for the treatment of Alzheimer's disease” (Eur J Med Chem, 2018).

Activity calls are given as the source filed them. The calls are words filed in the database; no cut-off is given here.

Series [1] deals with T1, CYP1A2 (Homo sapiens, UniProt P05177).
T1 sequence (P05177 whole entry): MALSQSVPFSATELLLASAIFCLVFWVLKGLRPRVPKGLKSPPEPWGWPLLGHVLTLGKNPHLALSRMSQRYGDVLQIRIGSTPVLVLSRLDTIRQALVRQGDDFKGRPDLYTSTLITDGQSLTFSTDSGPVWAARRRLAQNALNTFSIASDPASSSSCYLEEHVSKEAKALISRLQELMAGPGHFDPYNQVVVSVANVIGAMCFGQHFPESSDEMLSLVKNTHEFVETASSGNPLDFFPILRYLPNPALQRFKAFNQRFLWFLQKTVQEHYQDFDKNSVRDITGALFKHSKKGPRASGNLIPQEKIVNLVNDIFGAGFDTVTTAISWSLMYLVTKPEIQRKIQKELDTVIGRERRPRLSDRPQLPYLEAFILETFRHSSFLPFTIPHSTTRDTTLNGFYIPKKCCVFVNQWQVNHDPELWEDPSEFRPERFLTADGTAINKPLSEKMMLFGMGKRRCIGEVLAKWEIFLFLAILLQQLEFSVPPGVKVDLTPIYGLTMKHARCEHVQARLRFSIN
In words: Inhibition of recombinant human CYP1A2 assessed as remaining enzyme activity at 10 uM preincubated for 5 mins followed by NADPH addition measured after 20 mins by fluorescence assay relative to control. It is filed as ADME. As to conditions: read-out: Activity.

Series [2] deals with CYP2C9 (Homo sapiens, UniProt P11712). In words: Inhibition of recombinant human CYP2C9 assessed as remaining enzyme activity at 10 uM preincubated for 5 mins followed by NADPH addition measured after 20 mins by fluorescence assay relative to control. Format: ADME. As to conditions: read-out: Activity.
CYP2C9, sequence (P11712 whole entry): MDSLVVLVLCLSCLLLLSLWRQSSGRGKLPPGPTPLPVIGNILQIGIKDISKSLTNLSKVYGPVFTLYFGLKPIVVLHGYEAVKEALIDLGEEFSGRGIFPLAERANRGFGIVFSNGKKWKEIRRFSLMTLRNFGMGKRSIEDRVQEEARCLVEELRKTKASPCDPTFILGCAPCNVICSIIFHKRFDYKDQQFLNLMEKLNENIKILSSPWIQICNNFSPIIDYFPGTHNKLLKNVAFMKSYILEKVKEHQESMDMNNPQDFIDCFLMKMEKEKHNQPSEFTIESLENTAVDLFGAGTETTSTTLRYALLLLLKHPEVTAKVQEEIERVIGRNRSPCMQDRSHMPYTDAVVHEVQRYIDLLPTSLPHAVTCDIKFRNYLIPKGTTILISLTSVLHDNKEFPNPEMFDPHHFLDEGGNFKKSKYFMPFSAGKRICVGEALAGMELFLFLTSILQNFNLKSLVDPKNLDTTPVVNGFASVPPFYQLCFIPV
Series [3] addresses CYP2C19 (Homo sapiens, UniProt P33261). In words: Inhibition of recombinant human CYP2C19 assessed as remaining enzyme activity at 10 uM preincubated for 5 mins followed by NADPH addition measured after 20 mins by fluorescence assay relative to control. Format: ADME. The note with it: read-out: Activity.
Series [4] addresses CYP3A4 (Homo sapiens, UniProt P08684). In words: Inhibition of recombinant human CYP3A4 assessed as remaining enzyme activity at 10 uM preincubated for 5 mins followed by NADPH addition measured after 20 mins by fluorescence assay relative to control. Format: ADME. As to conditions: read-out: Activity.
Series [5] can be described thus: Metabolic stability in human liver microsomes assessed as parent compound remaining at 1 uM preincubated for 5 mins followed by NADPH addition measured after 30 mins by LC-MS/MS analysis. Format: ADME, microsome. As to conditions: read-out: Stability. On the technique in general: Microsomes from liver hold many membrane-bound enzymes, among them those of drug oxidation.

Series [6] in a line: Metabolic stability in dog liver microsomes assessed as parent compound remaining at 1 uM preincubated for 5 mins followed by NADPH addition measured after 30 mins by LC-MS/MS analysis. Format: ADME, Canis lupus familiaris, microsome. As to conditions: read-out: Stability.
The nature of series [7]: Metabolic stability in rat liver microsomes assessed as parent compound remaining at 1 uM preincubated for 5 mins followed by NADPH addition measured after 30 mins by LC-MS/MS analysis. Format: ADME, microsome. As to conditions: read-out: Stability.
Series [8] in a line: Metabolic stability in mouse liver microsomes assessed as parent compound remaining at 1 uM preincubated for 5 mins followed by NADPH addition measured after 30 mins by LC-MS/MS analysis. It is filed as ADME, microsome. As to conditions: read-out: Stability.
For series [9], the system named is HT-22. In words: Cytotoxicity against mouse HT22 cells assessed as decrease in cell viability at 10 uM after 24 hrs by MTT assay. It is filed as cell-based. As to conditions: ht-22, 24 h. For orientation: Tetrazolium assays rely on reduction of a dye to a coloured formazan, in cell work by metabolically active cells.
Series [10] concerns the target T2, Phosphatidylinositol 3,4,5-trisphosphate 5-phosphatase 2 (Mus musculus) (UniProt Q6P549).
T2 sequence (whole entry): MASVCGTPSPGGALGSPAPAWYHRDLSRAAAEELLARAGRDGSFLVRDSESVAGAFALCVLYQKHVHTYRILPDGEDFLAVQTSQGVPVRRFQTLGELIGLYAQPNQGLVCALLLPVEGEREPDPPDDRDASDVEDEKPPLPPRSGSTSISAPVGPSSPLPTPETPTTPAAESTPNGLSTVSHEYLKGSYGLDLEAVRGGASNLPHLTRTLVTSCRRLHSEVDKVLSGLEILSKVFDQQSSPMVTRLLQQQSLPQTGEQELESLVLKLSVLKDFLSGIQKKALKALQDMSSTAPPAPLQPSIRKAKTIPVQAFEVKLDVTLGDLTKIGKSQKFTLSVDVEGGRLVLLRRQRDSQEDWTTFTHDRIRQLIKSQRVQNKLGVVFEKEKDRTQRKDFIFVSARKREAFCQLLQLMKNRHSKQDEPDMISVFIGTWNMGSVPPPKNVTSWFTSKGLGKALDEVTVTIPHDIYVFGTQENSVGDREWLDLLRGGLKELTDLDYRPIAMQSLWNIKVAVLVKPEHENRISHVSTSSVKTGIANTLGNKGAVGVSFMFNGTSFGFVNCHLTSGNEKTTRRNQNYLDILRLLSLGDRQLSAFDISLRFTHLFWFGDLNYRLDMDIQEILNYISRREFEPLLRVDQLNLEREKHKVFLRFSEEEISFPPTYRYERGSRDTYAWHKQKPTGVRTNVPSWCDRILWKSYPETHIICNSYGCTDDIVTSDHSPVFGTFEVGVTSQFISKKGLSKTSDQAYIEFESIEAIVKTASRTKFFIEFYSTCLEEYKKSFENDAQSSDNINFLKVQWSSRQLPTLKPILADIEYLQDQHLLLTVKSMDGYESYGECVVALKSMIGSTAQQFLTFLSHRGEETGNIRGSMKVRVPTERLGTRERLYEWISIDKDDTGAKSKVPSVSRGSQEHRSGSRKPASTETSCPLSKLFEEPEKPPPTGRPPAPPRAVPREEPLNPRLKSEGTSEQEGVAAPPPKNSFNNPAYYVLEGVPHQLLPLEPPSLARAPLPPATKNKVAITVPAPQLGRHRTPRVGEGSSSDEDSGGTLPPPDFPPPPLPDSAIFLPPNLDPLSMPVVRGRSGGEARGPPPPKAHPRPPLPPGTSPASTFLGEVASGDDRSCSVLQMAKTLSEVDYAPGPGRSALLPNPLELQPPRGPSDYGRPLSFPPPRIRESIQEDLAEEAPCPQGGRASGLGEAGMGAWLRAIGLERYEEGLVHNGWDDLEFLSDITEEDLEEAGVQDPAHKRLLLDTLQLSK
In words: Inhibition of SHIP2 in mouse HT22 cells assessed as decrease in PI(3,4)P2 production at 10 uM after 24 hrs by mKate2-TAPP1-PH based fluorescence imaging method. It is filed as cell-based.

CYP2C19, sequence (P33261 whole entry): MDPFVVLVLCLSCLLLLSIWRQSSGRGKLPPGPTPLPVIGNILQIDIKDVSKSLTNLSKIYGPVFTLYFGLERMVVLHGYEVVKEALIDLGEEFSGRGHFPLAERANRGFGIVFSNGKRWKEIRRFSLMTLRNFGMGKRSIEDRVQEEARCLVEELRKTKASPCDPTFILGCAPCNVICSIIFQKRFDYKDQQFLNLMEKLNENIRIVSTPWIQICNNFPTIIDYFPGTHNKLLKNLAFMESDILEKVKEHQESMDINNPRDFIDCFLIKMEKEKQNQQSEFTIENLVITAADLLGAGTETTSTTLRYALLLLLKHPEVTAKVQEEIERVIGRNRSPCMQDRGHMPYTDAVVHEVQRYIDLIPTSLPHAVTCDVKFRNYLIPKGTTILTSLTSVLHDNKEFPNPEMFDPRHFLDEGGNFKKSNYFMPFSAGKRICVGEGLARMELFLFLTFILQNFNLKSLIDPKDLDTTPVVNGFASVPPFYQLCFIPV
CYP3A4, sequence (P08684 whole entry): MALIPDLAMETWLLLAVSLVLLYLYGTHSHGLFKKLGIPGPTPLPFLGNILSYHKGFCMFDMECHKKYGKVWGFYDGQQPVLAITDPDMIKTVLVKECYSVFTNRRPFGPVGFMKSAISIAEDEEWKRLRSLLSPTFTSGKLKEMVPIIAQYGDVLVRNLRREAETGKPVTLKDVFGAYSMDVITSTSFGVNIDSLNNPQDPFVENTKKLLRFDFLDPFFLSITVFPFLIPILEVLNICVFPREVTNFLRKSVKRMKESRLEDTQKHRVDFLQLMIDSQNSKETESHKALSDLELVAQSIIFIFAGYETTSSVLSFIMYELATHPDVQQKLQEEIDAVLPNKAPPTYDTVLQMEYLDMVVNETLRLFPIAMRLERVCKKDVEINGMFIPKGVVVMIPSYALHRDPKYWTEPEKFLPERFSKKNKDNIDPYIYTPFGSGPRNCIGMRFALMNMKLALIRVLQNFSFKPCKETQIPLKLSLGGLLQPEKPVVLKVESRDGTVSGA

As to `O=C(NCc1c(F)cccc1F)c1sccc1OCc1ccc(Cl)cc1Cl`, the activity at 20 min, 10 µM in series [1] was 74.3%; in series [2], 10.9%; in series [3] it was 16.4%; in series [4], 20.2%. In addition, the remaining at 0.5 h, 1 µM was found to be 44.1% in series [5], 5.7% in series [6], 28.3% in [7] and 6.4% in [8]. The Activity entry in [9] is “Toxic”. The inhibition entry in series [10] was “Active”.
With `C[C@@H](Oc1cncc(-c2cnc(N)nc2)c1)c1c(Cl)ccc(F)c1Cl`, the activity at 20 min, 10 µM is 59% in series [1], 66.7% in [2], 36.4% in series [3] and 80.2% in [4]. Also, the remaining at 0.5 h, 1 µM in series [5] came to 77%; in series [6] it was 23.1%; in series [7] it was 56.4%; in series [8] it was 46.5%. Further, the Activity entry in series [9] is listed as “Non-Toxic”. Besides, the inhibition entry in series [10] is “Active”.
For `N#Cc1ccc(-c2cncc(OCc3ccc(Cl)cc3Cl)c2)s1`, the activity at 20 min, 10 µM was 77.6% in [1], 97.2% in series [2], 89.9% in series [3] and 96.7% in [4]. Also, the remaining at 0.5 h, 1 µM in series [5] is 74.5%; in [6] it was 24.3%; in [7] it was 64.3%; in series [8], 38.8%. Besides, the Activity entry in [9] is on record as “Non-Toxic”. Further, the inhibition entry in series [10] was “Active”.
